{"source": "paper doi:10.1101/2025.11.04.686469", "about": "“Discovery of Host-Directed Small Molecules with Broad Anti-Leishmanial Efficacy” (bioRxiv, 2025)", "key": {"[1]": {"tested_on": "extracellular L. mexicana promastigotes", "test": "Effect of compounds on promastigote viability (resazurin assay)", "assay_type": "cell-based, Leishmania mexicana", "experimental": "(§1) The effect of compounds on extracellular promastigotes was evaluated using a resazurin-based assay as described previously. In short, late log phase Leishmania promastigotes were seeded in a 96 well plate at 1 x 10^5 parasites per well and treated with drugs (0.5 – 200 μM) for 72 hours at 25°C. Ten microliters of resazurin (0.02% w/v) were added to the treated parasites to achieve a final concentration of 0.002% w/v and incubated for 24 hours. Viability of the promastigotes was assessed by fluorescence (excitation 544 nm, emission 590 nm, SpectraMax M2, Molecular Devices)."}, "[2]": {"tested_on": "extracellular L. donovani promastigotes", "test": "Effect of compounds on promastigote viability (resazurin assay)", "assay_type": "cell-based, Leishmania donovani", "settings": "for MIC50: Leishmania donovani, 72-hour incubation", "experimental": "as §1"}, "[3]": {"tested_on": "intracellular L. donovani amastigotes", "test": "Luminescent-based evaluation of intracellular anti-leishmanial activity in THP-1 macrophages", "assay_type": "cell-based, Leishmania donovani", "settings": "Leishmania donovani, THP-1; THP1 macrophages, luminescence assay, 72 hours of treatment; read-out: Intracellular L. donovani amastigotes Lum IC50", "in_short": "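PMA-differentiated THP-1 macrophages (150 nM, 72 h) were infected 18 h with firefly luciferase-expressing L. donovani LV82 promastigotes, then washed. Infected cells were treated with compounds at 0.1-10 μM for 72 h. Surviving intracellular amastigotes were quantified by firefly luciferase luminescence after cell lysis and 10 min substrate incubation at room temperature.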"}, "[4]": {"test": "Effect of compounds on host cell viability (MTT)", "assay_type": "cell-based", "settings": "human", "in_short": "(§2)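 Viability was read as MTT reduction: 2 h with 0.5 mg/mL, formazan dissolved in isopropanol, A560 with 670 nm background subtracted. The macrophages were PMA-differentiated THP-1 cells (150 nM, 72 h), treated 24 h at 1–50 μM or, for some compounds, 72 h at 1–300 μM.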"}, "THP-1 macrophages": {"tested_on": "THP-1 macrophages", "test": "Effect of compounds on host cell viability (MTT)", "assay_type": "cell-based", "in_short": "as §2"}, "[5]": {"tested_on": "intracellular L. donovani in WT and Lys K/O BMDMs", "test": "197 target validation: Giemsa staining in BMDMs from wild-type and lysozyme knockout mice", "assay_type": "cell-based, Leishmania donovani", "settings": "WT vs Lys K/O BMDMs", "excerpt": "B6.129P2-Lyz2^tm1(cre)Ifo/J mice[23] (stock #004781, herein termed ‘Lys K/O’) were obtained from Jackson Laboratory. This strain has a nuclear-localized Cre recombinase inserted into the first coding ATG of the lysozyme 2 gene (Lyz2) which eliminates endogenous Lyz2 gene function. Wildtype C57BL6/J mice (stock #000664) were obtained as a control.\nBone marrow derived macrophages (BMDMs) were isolated from both mice and cultured as described above in “Image-based Evaluation of Intracellular Anti-Leishmanial Activity”. BMDMs were seeded onto glass cover slips, infected with LV82 L. donovani at a multiplicity of infection of 1:10. Cells were washed to remove extracellular promastigotes and treated with compounds (197, amphotericin B) for a 72-hour incubation. BMDM cells were then washed with phosphate buffered saline, fixed with ice-cold methanol, and stained with Giemsa (5% v/v in water). The cover slips with stained cells are mounted onto glass slides and imaged on EVOS XL (100X, Thermo Fisher Scientific). Leishmania amastigotes per 100 macrophages were determined in a blinded manner."}}, "note": "pIC50: −log10 of the molar value. Like-named read-outs stand apart in the source and are kept apart here."}
{"smiles": "O=C(CNCc1cccc(F)c1)Nc1ccc(-n2cc(C(F)(F)F)nc2-c2ccc(-c3ccc(C(F)(F)F)cc3)cc2)cc1", "note": "[Compound 197]", "values": [{"measurement": "effect on L. mexicana extracellular promastigote viability", "setting": "[1]", "result": "no effect"}, {"measurement": "MIC50", "setting": "[1]; Leishmania mexicana, 72-hour incubation", "result": "> 200", "unit": "µM"}, {"measurement": "MIC50", "setting": "[2]; resazurin assay (Table 3), read-out: L. donovani Extracellular promastigotes MIC50", "result": 6.4, "unit": "µM"}, {"measurement": "MIC50", "setting": "[2]; resazurin assay, read-out: Extracellular L. donovani promastigotes MIC50", "result": 6.4, "unit": "µM"}, {"measurement": "direct effect on extracellular promastigote viability", "setting": "[2]; resazurin assay, strain not named for 53, L. donovani for 197", "result": "some direct reduction"}, {"measurement": "pIC50", "setting": "[3]", "result": 5.62}, {"measurement": "CC50 at 24 h", "setting": "[4]", "result": "> 50", "unit": "µM"}, {"measurement": "CC50 at 72 h", "setting": "[4]", "result": "> 300", "unit": "µM"}, {"measurement": "CC50", "setting": "THP-1 macrophages", "result": "> 300", "unit": "µM"}, {"measurement": "reduction in macrophage viability", "setting": "THP-1 macrophages; 72hr incubation up to 300μM", "result": "Neither compound had any reduction"}, {"measurement": "anti-leishmanial activity in Lys K/O BMDMs", "setting": "[5]", "result": "notably decreased"}]}
